Test results from ChEMBL document CHEMBL1201862, “PubChem BioAssay data set” (2004).
The source made the active and inactive calls.

Tests used:
[1] = molecular target: Induced myeloid leukemia cell differentiation protein Mcl-1 (Homo sapiens, UniProt Q07820); format: functional
[2] = molecular target: T1, Heat shock factor protein 1 (Mus musculus, UniProt P38532); test: enhancement of HSF1-driven luciferase signal – cell-based, NIH3T3, luminescence, dose retest, confirmation (AID 435004); format: functional;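 further: stress induced by proteasome inhibitor MG132 added 30 min after compound; luciferase reporter driven by HSF1 response element in NIH3T3 cells; actives raise luminescence as potentiators of the MG132 stress response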
T1 sequence (P38532 whole entry): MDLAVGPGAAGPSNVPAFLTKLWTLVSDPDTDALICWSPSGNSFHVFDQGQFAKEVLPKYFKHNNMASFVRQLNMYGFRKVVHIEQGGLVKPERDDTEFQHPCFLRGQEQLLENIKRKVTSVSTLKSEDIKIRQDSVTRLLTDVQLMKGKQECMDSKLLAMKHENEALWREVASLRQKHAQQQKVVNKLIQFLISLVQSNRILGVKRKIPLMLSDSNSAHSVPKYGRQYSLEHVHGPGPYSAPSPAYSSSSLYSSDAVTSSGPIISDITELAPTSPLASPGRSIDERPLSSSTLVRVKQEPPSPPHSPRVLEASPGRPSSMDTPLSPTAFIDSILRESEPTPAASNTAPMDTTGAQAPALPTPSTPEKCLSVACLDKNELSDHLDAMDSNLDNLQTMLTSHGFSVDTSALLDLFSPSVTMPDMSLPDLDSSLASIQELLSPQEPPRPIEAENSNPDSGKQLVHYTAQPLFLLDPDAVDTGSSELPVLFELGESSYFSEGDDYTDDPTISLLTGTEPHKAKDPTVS

Ephrin type-A receptor 4 = Ephrin type-A receptor 4 (Mus musculus, UniProt Q03137); test: EphA4 ligand-binding antagonists – biochemical, colorimetric, mouse EphA4, primary screen (AID 689); format: functional
Ephrin type-A receptor 4, sequence (Q03137 whole entry): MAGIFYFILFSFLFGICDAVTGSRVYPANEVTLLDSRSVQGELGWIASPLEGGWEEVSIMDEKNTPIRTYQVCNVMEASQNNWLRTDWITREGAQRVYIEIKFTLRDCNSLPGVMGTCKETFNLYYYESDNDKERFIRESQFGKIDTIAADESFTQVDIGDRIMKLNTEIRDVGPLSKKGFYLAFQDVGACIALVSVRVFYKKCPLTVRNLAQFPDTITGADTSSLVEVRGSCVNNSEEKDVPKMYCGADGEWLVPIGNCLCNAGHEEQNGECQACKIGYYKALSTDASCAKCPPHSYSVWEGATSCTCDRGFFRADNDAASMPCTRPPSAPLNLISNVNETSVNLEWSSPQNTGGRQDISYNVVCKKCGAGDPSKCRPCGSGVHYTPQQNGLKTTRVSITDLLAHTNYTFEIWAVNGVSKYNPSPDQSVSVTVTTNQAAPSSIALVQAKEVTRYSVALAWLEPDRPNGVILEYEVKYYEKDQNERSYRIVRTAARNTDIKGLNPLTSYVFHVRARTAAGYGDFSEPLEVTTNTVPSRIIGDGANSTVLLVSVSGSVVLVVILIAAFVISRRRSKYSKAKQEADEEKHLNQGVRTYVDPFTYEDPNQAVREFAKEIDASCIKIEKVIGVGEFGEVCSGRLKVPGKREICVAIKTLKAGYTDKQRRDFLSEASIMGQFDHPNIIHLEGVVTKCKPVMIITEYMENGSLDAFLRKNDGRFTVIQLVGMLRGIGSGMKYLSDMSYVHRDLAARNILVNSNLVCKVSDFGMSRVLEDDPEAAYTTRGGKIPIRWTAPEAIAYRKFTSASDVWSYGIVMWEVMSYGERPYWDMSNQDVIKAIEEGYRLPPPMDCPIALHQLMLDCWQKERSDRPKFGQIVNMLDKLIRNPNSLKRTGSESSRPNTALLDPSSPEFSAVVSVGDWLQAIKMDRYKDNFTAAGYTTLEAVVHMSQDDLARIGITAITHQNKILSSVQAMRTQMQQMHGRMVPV

[3] = THP-1 cell cytotoxicity, dose response, cytotoxicity control for non-replicating M. tuberculosis project (AID 489025); format: functional
cells [4] = format: functional
[5] = NIH3T3 cell viability loss – ATP luminescence, mouse fibroblasts, counter-screen, dose response (AID 2010); format: functional, cell-based;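 further: cells exposed to compound for about 90 hours before reading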
[6] = Trypanosoma cruzi growth suppression in host cells – NIH3T3 host cells, beta-gal luminescence, confirmation (AID 2044); format: functional, cell-based;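 further: intracellular parasites grown in NIH/3T3 mouse fibroblasts as host cells; luminescent beta-galactosidase reporter signal from transgenic T. cruzi replicating inside host cells; inhibitors lower the luminescence signal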
[7] = molecular target: T2, Microphthalmia-associated transcription factor (Homo sapiens, UniProt O75030); test: reducers of TRPM1 reporter luminescence, concentration series – cell-based, SK-MEL-5, cherry-picked, set 3, MITF inhibitor project, dose response (AID 493073); format: functional;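 further: SK-MEL-5 melanoma cells with luciferase driven by the MITF target TRPM1 promoter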
T2 sequence (O75030 whole entry): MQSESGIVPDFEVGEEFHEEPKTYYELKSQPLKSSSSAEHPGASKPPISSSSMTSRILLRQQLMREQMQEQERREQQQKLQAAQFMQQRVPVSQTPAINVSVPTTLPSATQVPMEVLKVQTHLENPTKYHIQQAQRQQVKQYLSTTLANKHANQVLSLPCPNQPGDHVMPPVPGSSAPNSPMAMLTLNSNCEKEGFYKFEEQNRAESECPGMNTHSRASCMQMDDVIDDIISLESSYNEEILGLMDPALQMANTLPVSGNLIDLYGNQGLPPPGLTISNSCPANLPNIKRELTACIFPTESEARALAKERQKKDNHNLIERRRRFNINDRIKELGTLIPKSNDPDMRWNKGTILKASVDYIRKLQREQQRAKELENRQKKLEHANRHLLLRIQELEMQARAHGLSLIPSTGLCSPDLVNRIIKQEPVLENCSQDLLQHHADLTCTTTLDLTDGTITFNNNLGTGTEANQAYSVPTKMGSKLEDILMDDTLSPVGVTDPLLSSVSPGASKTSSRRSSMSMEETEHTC

cells [8] = test: cells
Prothrombin = Prothrombin (Homo sapiens, UniProt P00734); test: Thrombin 1536 HTS Dose Response Confirmation. [Related pubchem assays: 1046 (Thrombin 1536 HTS; hits were confirmed in this assay)]; format: functional
[9] = viability of uninfected HEp-2 cells – cell-based, HTS, cytotoxicity control for RSV inhibitor project, dose response (AID 2410); format: functional; details: human respiratory syncytial virus
[10] = M. tuberculosis growth inhibition, HTS (AID 449762); format: functional
[11] = microbe, parasite or virus in culture; format: functional; details: Mycobacterium tuberculosis
Orexin receptor type 2 [12] = molecular target: T3, Orexin receptor type 2 (Homo sapiens, UniProt O43614); test: Counterscreen assay for antagonists of the orexin 1 receptor (OX1R; HCRTR1): Homogeneous Time Resolved Fluorescence (HTRF)-based cell-based dose response assay for antagonists of the orexin 2 receptor (OX2R; HCRTR2), run by assay provider.; format: functional
T3 sequence (O43614 whole entry): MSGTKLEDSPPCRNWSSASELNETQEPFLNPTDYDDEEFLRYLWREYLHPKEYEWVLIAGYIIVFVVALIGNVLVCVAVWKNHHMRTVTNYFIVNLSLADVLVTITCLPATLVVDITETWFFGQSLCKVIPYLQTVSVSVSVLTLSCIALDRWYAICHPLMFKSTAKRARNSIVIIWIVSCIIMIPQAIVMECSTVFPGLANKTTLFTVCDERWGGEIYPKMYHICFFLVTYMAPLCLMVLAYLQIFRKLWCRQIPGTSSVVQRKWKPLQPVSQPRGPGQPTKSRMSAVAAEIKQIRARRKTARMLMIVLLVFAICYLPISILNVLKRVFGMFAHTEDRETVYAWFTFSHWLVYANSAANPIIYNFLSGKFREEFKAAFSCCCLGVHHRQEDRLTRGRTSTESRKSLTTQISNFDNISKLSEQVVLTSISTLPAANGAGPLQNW

BJ [13] = test: BJ-TERT fibroblast viability loss – cell-based, RAS-independent, luminescence, dose response (AID 1933); format: functional; details: Homo sapiens
[14] = Counterscreen for antagonists of the orexin 1 receptor (OX1R; HCRTR1): Fluorescence-based cell-based high throughput dose response assay to identify antagonists of the parental CHO cell line. [Related pubchem assays (depositor defined):AID434989, AID435008, AID463079, AID485270, AID492963, AID492964, AID492965, AID493232, AID504699, AID504701]; format: functional
[15] = DRD fibroblast viability loss – cell-based, non-viral oncogenic, luminescence, dose response (AID 1934); format: functional; details: Homo sapiens
INS1 = test: INS-1E survival protection against cytokine death – cell-based, luminescence, retest, dose response (AID 449756); format: functional; details: Rattus norvegicus;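 further: cell death triggered by IL-1 beta plus TNF-alpha plus IFN-gamma mixture; protective hits raise ATP signal compared with cytokine alone wells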
[16] = molecular target: T4, Orexin/Hypocretin receptor type 1 (Homo sapiens, UniProt O43613); test: Homogeneous Time Resolved Fluorescence (HTRF)-based cell-based high throughput dose response assay for antagonists of the orexin 1 receptor (OX1R; HCRTR1). [Related pubchem assays (depositor defined):AID434989, AID435008, AID463079, AID485270, AID492963, AID492964, AID492965, AID493232, AID504717, AID504718]; format: functional
T4 sequence (O43613 whole entry): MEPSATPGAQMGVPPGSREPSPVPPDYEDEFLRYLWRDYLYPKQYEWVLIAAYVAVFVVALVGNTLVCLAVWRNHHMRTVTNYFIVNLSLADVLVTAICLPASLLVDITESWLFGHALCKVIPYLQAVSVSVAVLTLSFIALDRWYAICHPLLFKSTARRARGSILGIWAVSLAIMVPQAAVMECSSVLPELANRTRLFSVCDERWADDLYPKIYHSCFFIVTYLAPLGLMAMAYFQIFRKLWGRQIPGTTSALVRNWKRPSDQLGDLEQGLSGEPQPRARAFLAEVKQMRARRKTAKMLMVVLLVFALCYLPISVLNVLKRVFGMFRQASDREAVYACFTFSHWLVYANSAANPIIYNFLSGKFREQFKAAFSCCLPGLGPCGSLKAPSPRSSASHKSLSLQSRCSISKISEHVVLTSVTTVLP

BJ [17] = test: growth inhibition of engineered Ras-driven BJ cells – cell-based, alamar blue fluorescence, cherrypicked samples, dose response (AID 2631); format: functional; details: Homo sapiens;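 further: confirmatory dose-response assay in RAS-dependent BJ fibroblasts engineered with TERT, LT and ST, with cytotoxicity read by fluorescence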
[18] = molecular target: T4, Orexin/Hypocretin receptor type 1; test: Fluorescence-based cell-based high throughput dose response assay for antagonists of the orexin 1 receptor (OX1R; HCRTR1). [Related pubchem assays (depositor defined):AID434989, AID435008, AID463079, AID485270, AID492963, AID492964, AID492965, AID493232, AID504717, AID504718]; format: functional
cells [19] = format: functional, cell-based
BJ [20] = test: BJ-TERT-LT-ST fibroblast viability loss – cell-based, RAS-independent, luminescence, dose response (AID 1935); format: functional; details: Homo sapiens;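 further: BJ fibroblasts immortalized with TERT plus LT and ST oncogenes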
Vero = test: mammalian cell viability reduction – secondary assay, cytotoxicity control for West Nile virus antiviral project, dose response (AID 1650); format: functional; details: Chlorocebus sabaeus
[21] = molecular target: T5, RNA-binding protein pos-1 (Caenorhabditis elegans, UniProt G5EF15); test: disruptors of C. elegans POS-1 RNA interaction – biochemical, fluorescence polarization, dose response (AID 1964);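 further: purified POS-1 fused to maltose binding protein made in E. coli; potency of compounds blocking POS-1 binding to fluorescent RNA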
T5 sequence (G5EF15 whole entry): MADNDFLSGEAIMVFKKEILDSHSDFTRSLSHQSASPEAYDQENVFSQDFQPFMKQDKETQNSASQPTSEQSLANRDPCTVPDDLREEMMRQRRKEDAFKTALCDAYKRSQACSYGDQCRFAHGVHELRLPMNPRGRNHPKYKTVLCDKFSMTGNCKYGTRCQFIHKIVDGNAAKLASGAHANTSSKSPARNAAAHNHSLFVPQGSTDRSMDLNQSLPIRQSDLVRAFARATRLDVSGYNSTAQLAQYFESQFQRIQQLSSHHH

[22] = NIH-3T3 fibroblast cytotoxicity, dose response, cytotoxicity control, cell-based, fluorescence, Alamar Blue, secondary assay (AID 2327); format: functional;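 further: NIH-3T3 mouse fibroblasts cultured with fluconazole at 8 µg/mL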
BJ [23] = test: cells; format: functional, cell-based; details: Homo sapiens
[24] = molecular target: T6, Zinc finger protein mex-5 (Caenorhabditis elegans, UniProt Q9XUB2); test: potency of MEX-5 RNA-binding blockers – biochemical, C. elegans, fluorescence polarization, dose response (AID 1960)
T6 sequence (Q9XUB2 whole entry): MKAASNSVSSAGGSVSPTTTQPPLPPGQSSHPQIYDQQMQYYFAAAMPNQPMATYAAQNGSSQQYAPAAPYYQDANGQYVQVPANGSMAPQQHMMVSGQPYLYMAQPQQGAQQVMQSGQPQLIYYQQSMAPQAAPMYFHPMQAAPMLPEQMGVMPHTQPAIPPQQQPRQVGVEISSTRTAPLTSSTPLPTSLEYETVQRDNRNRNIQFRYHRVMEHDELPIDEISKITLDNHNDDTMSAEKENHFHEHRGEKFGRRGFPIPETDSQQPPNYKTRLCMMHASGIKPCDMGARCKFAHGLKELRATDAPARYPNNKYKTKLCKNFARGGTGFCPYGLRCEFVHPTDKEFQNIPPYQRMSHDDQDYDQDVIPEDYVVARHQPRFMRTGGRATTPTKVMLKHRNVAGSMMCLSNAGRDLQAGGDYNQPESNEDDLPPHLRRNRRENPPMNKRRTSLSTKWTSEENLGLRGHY

[25] = fluconazole-exposed Candida albicans growth modulators – fluorescence, retest, confirmation (AID 2467); format: functional, cell-based
CHO-K1 = test: Counterscreen for antagonists of the orexin 1 receptor (OX1R; HCRTR1): Homogeneous time resolved fluorescence (HTRF)-based cell-based dose response assay to identify antagonists of the parental CHO-K1 cell line. [Related pubchem assays (depositor defined):AID434989, AID435008, AID463079, AID485270, AID492963, AID492964, AID492965, AID493232, AID504699, AID504701]; format: functional; details: Cricetulus griseus;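 further: potency for inhibition of ATP-stimulated IP1 production as antagonists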
Orexin receptor type 2 [26] = molecular target: T3, Orexin receptor type 2; test: Counterscreen assay for antagonists of the orexin 1 receptor (OX1R; HCRTR1): Fluorescence-based cell-based dose response assay for antagonists of the orexin 2 receptor (OX2R; HCRTR2), run by assay provider.; format: functional
cells [27] = format: functional, cell-based; remark: listed apart in the source
[28] = molecular target: Sphingosine 1-phosphate receptor 2 (Homo sapiens, UniProt O95136); test: Dose Response Cell Based Assay for Agonists of the S1P2 Receptor. [Related pubchem assays: 729, 736, 843 ]; format: functional
Sphingosine 1-phosphate receptor 2, sequence (O95136 whole entry): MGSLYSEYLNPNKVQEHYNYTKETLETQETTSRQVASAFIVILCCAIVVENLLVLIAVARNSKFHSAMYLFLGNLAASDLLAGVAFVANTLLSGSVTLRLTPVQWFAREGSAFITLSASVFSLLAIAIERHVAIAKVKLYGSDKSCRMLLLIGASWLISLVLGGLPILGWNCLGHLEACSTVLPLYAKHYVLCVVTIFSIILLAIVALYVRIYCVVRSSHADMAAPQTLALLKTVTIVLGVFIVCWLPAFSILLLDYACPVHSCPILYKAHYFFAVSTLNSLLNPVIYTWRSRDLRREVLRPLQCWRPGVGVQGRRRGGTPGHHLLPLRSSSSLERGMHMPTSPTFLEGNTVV

Induced myeloid leukemia cell differentiation protein Mcl-1, sequence (Q07820 whole entry): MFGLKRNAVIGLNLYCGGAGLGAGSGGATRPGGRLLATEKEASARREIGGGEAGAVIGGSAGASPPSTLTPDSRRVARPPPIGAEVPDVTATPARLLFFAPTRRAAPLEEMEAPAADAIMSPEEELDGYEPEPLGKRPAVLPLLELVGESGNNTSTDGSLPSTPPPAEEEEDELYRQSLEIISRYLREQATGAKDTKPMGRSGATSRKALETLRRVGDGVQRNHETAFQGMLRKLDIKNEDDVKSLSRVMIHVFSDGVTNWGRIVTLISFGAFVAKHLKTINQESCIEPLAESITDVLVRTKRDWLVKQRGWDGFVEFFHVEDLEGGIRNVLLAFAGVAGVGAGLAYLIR

CCN(CCO)c1nc(SC)nc2c1sc1nc(-c3ccco3)c3c(c12)CCC3
IC50 [1]: 1.85 µM (active) | EC50 [2]: 66.5 µM (active) | IC50 (Ephrin type-A receptor 4): 24.1 µM (active)

Cc1cc(C)cc(OCC(=O)N/N=C/c2ccc([N+](=O)[O-])o2)c1
CC50 [3]: 31.5 µM (active) | IC50 (cells [4]): 2.7 µM (active) | EC50 [5]: 33.5 µM (active) | EC50 [6]: < 0.1 µM (active) | AC50 [7]: 7.12 µM (active) | EC50 (cells [8]): 0.153 µM (active)

COc1ccccc1C(=O)n1nc(-c2ccco2)nc1SC
IC50 (Prothrombin): 0.001 µM (active)

CCOC(=O)c1ccc(/N=C2\SC(C(=O)Nc3ccc(C(=O)O)cc3)CC(=O)N2Cc2cccs2)cc1 (stereo unspecified)
CC50 [3]: > 40 µM (active) | CC50 [9]: 13 µM (active) | IC50 [10]: > 100 µM (active)

COc1ccc(-c2c(-c3cc(OC)cc(OC)c3)n(C)c3ccc(-c4cc[nH]n4)cc23)cc1
CC50 [11]: > 40 µM (active) | IC50 [10]: > 100 µM (active)

CCN(CC)c1ccc(/C=N/NC(=O)c2ccco2)c(O)c1
IC50 (Orexin receptor type 2 [12]): > 50 µM (inactive) | EC50 (BJ [13]): 2.7 µM (inconclusive) | IC50 [14]: > 49.8 µM (inactive) | EC50 [15]: 2.58 µM (active) | AC50 (INS1): 0.638 µM (active) | IC50 [16]: 2.83 µM (active) | EC50 (BJ [17]): 0.966 µM (active) | IC50 [18]: 4.03 µM (active) | EC50 (cells [19]): 9.18 µM (active) | EC50 (BJ [20]): 2.66 µM (active) | CC50 (Vero): 5.13 µM (active) | EC50 [21]: > 300 µM (not active) | EC50 [22]: 2.76 µM (inconclusive) | EC50 (BJ [23]): 3.34 µM (active) | EC50 [24]: > 300 µM (not active) | EC50 [25]: 0.787 µM (active) | IC50 (CHO-K1): > 66.3 µM (inactive) | IC50 (Orexin receptor type 2 [26]): > 88.8 µM (inactive) | EC50 (cells [27]): 10.3 µM (active)

CCOC(=O)c1cc2ccc(OC)c(OC)c2c(=O)s1
EC50 [28]: > 50 µM (not active)

Cn1c(SCC(=O)c2ccc3c(c2)NC(=O)CO3)nc2ccccc21
IC50 (Prothrombin): > 50 µM (not active)
